Reference: the NIST ThermoML archive (doi:10.1016/j.jct.2014.04.014)
Numbers after ± are expanded uncertainties.

Assay: wn = mass fraction of the nth substance listed
Conditions: 273.15 K, 102.5 kPa, Liquid; for viscosity: Capillary tube (Ostwald / Ubbelohde) method; for mass density: Pycnometric method

Compound `[Cl-].[Na+]` [sodium chloride] + O has a viscosity (w1 = 0.2625) of 2.16 ± 0.05 mPa·s and a mass density (w1 = 0.2625) of 1201 ± 1 kg/m3.

`O=[PH2][O-].[Na+]` [sodium phosphinate] + O showed a viscosity (w1 = 0.478) of 73.88 ± 1.9 mPa·s and a mass density (w1 = 0.478) of 1384 ± 1 kg/m3.

Work on `[Cl-].[Cl-].[Zn+2]` [zinc chloride] + O yielded a viscosity (w1 = 0.666) of 135.4 ± 4.5 mPa·s and a mass density (w1 = 0.666) of 1943 ± 3 kg/m3.

For `O=[PH2][O-].O=[PH2][O-].[Zn+2]` [zinc(II) phosphinate] + O, the viscosity (w1 = 0.1379) was 2.95 ± 0.06 mPa·s and the mass density (w1 = 0.1379) was 1069 ± 1 kg/m3.
